Measured values: paper PMC6070535, “Identification, Characterization, and X-ray Crystallographic Analysis of a Novel Type of Lectin AJLec from the Sea Anemone Anthopleura japonica” (Scientific Reports, 2018)
≈ marks a conversion by molar mass, not a printed value.

biological target: T1, AJLec (Anthopleura japonica, UniProt A0A2Z5WLM1); experiment: hemagglutination inhibition, rabbit erythrocytes; format: cell-based; settings: 2.4–2.6 μg/mL AJLec, TBS-Ca2+
T1 construct: mature 164 residues, 18,491 Da, precursor 186 residues; N-terminal pyroglutamate; disulfide-linked homodimer (36 kDa); Ca2+ dependent
T1 sequence (A0A2Z5WLM1 23-186): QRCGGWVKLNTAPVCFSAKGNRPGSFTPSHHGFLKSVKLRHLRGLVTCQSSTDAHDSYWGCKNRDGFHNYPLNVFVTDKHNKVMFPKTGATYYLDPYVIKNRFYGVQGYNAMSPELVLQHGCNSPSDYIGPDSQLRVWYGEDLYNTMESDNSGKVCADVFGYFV
Description: hemagglutination inhibition, rabbit erythrocytes on AJLec

Compound | Minimum inhibitory concentration
OC[C@H]1O[C@@H](O[C@H]2[C@H](O)[C@@H](O)C(O)O[C@@H]2CO)[C@H](O)[C@@H](O)[C@H]1O (some centres unmarked) [Lactose] | 100 µM (≈ 34.2 µg/mL)
OC[C@H]1OC(O)[C@@H](O)[C@@H](O)[C@@H]1O (stereo partly drawn) [D-Mannose] | > 25000 µM
OC[C@H]1O[C@H](OC[C@H]2OC(O)[C@H](O)[C@@H](O)[C@@H]2O)[C@H](O)[C@@H](O)[C@H]1O (some centres unmarked) [Melibiose] | 800 µM (≈ 274 µg/mL)
CC(=O)N[C@H]1C(O)O[C@H](CO)[C@H](O)[C@@H]1O (some centres unmarked) [N-Acetylgalactosamine] | 25000 µM (≈ 5530 µg/mL)
OC[C@H]1OC(O)[C@H](O)[C@@H](O)[C@H]1O (some centres unmarked) [Galactose] | 50 µM (≈ 9.01 µg/mL)
OC[C@H]1O[C@H](O[C@H]2[C@H](O)[C@@H](O)C(O)O[C@@H]2CO)[C@H](O)[C@@H](O)[C@@H]1O (some centres unmarked) [Maltose] | 6300 µM (≈ 2160 µg/mL)
OC[C@H]1O[C@H](OC[C@H]2OC(O)(CO)[C@@H](O)[C@@H]2O)[C@H](O)[C@@H](O)[C@@H]1O (some centres unmarked) [Palatinose] | 3100 µM (≈ 1060 µg/mL)
CO[C@@H]1O[C@H](CO)[C@H](O)[C@H](O)[C@H]1O [Me-β-Gal] | 400 µM (≈ 77.7 µg/mL)
OC[C@H]1O[C@@H](O[C@@H]2[C@@H](CO)OC(O)(CO)[C@H]2O)[C@H](O)[C@@H](O)[C@H]1O (some centres unmarked) [Lactulose] | 100 µM (≈ 34.2 µg/mL)
CO[C@H]1O[C@H](CO)[C@H](O)[C@H](O)[C@H]1O [Me-α-Gal] | 800 µM (≈ 155 µg/mL)
OC[C@H]1O[C@H](OC[C@H]2O[C@H](O[C@]3(CO)O[C@H](CO)[C@@H](O)[C@@H]3O)[C@H](O)[C@@H](O)[C@@H]2O)[C@H](O)[C@@H](O)[C@H]1O [Raffinose] | 800 µM (≈ 404 µg/mL)
C[C@@H]1OC(O)[C@@H](O)[C@H](O)[C@@H]1O (stereo partly drawn) [L-Fucose] | 3000 µM (≈ 492 µg/mL)
CO[C@H]1O[C@H](CO)[C@@H](O)[C@H](O)[C@H]1O [Me-α-Glc] | > 25000 µM
CO[C@H]1O[C@H](CO)[C@@H](O)[C@H](O)[C@@H]1O [Me-α-Man] | > 25000 µM
OC[C@H]1OC(O)[C@H](O)[C@@H](O)[C@@H]1O (stereo partly drawn) [D-Glucose] | > 25000 µM
C[C@@H]1OC(O)[C@H](O)[C@H](O)[C@H]1O (stereo partly drawn) [L-Rhamnose] | 3000 µM (≈ 492 µg/mL)

biological target: AJLec (Anthopleura japonica Lectin) (Anthopleura japonica); experiment: crystal structure; AJLec with 100 mM lactose and 1 mM CaCl2 in TBS; vapor diffusion, 200 mM NaCl, 100 mM HEPES pH 7.5, 30% PEG 3350, 20 °C; two chains per asymmetric unit; settings: not given

Compound | stoichiometry N
AJLec (Anthopleura japonica Lectin) (natural protein) | 2
